Activity calls are given as the source filed them. No cut-off for these calls is given here.
How the values were obtained:
[1] = AUC (0 to t) in Sprague-Dawley rat at 5 mg/kg, iv by LC-MS/MS analysis; assay type: ADME, organism-based; design: dose 5 mg/kg; conditions: in vivo
[2] = target: Serine/threonine-protein kinase 16 (Homo sapiens) (UniProt O75716); experiment: Inhibition of human STK16 at 0.1 uM relative to control
Mus musculus [3] = experiment: Anti- inflammatory activity in DSS-induced C57BL/6 mouse ulcerative colitis model assessed as suppression of IL-6 content in serum at 20 mg/kg, po administrated for 6 days measured on day 9; assay type: functional, organism-based; conditions: time 6.0 day
Mus musculus [4] = experiment: Anti-inflammatory activity in DSS-induced C57BL/6 mouse ulcerative colitis model assessed as suppression of TNFalpha content in serum at 20 mg/kg, po administrated for 6 days measured on day 9; assay type: functional, organism-based; conditions: time 6.0 day
[5] = Oral bioavailability in Sprague-Dawley rat at 20 mg/kg by LC-MS/MS analysis; assay type: ADME, organism-based; conditions: in vivo
[6] = Cmax in Sprague-Dawley rat at 20 mg/kg, po by LC-MS/MS analysis; assay type: ADME, organism-based; design: route oral, dose 20 mg/kg; conditions: in vivo
[7] = Metabolic stability in cryopreserved human liver microsomes assessed as half life; assay type: ADME, Microsome
[8] = Cmax in Sprague-Dawley rat at 5 mg/kg, iv by LC-MS/MS analysis; assay type: ADME, organism-based; design: route intravenous, dose 5 mg/kg; conditions: in vivo
Mus musculus [9] = experiment: Anti-inflammatory activity in DSS-induced C57BL/6 mouse ulcerative colitis model assessed as suppression of TNFalpha content in colon tissue at 20 mg/kg, po administrated for 6 days measured on day 9; assay type: functional, organism-based; conditions: time 6.0 day
Mus musculus [10] = experiment: Anti-inflammatory activity in DSS-induced C57BL/6 mouse ulcerative colitis model assessed as increase in IL-10 content in colon tissue at 20 mg/kg, po administrated for 6 days measured on day 9; assay type: functional, organism-based; conditions: time 6.0 day
Mus musculus [11] = experiment: Anti-ulcerative colitis activity in DSS-induced C57BL/6 mouse ulcerative colitis model assessed as recovery of colon crypts at 20 mg/kg, po administrated for 6 days measured on day 9 by microscopy based histopathological analysis; assay type: functional, organism-based; conditions: time 6.0 day
Mus musculus [12] = experiment: Anti-inflammatory activity in DSS-induced C57BL/6 mouse ulcerative colitis model assessed as increase in IL-10 content in serum at 20 mg/kg, po administrated for 6 days measured on day 9; assay type: functional, organism-based; conditions: time 6.0 day
[13] = AUC (0 to t) in Sprague-Dawley rat at 20 mg/kg, po by LC-MS/MS analysis; assay type: ADME, organism-based; design: dose 20 mg/kg; conditions: in vivo
[14] = MRT (0 to t) in Sprague-Dawley rat at 20 mg/kg, po by LC-MS/MS analysis; assay type: ADME, organism-based; conditions: in vivo
[15] = Tmax in Sprague-Dawley rat at 20 mg/kg, po by LC-MS/MS analysis; assay type: ADME, organism-based; conditions: in vivo
Mus musculus [16] = experiment: Anti-ulcerative colitis activity in DSS-induced C57BL/6 mouse ulcerative colitis model assessed as recovery of colon epithelial and mucosal structure at 20 mg/kg, po administrated for 6 days measured on day 9 by microscopy based histopathological analysis; assay type: functional, organism-based; conditions: time 6.0 day
[17] = Volume of distribution at steady state in Sprague-Dawley rat at 5 mg/kg, iv by LC-MS/MS analysis; assay type: ADME, organism-based; conditions: in vivo
Mus musculus [18] = experiment: Anti-ulcerative colitis activity in DSS-induced C57BL/6 mouse ulcerative colitis model assessed as recovery of body weight at 10 to 20 mg/kg, po administrated for 6 days measured on day 9; assay type: functional, organism-based; conditions: dose 10-20 mg/kg, time 6.0 day
Mus musculus [19] = experiment: Anti-ulcerative colitis activity in DSS-induced C57BL/6 mouse ulcerative colitis model assessed as increase in colon length at 10 to 20 mg/kg, po administrated for 6 days measured on day 9; assay type: functional, organism-based; conditions: dose 10-20 mg/kg, time 6.0 day
Mus musculus [20] = experiment: Anti-ulcerative colitis activity in DSS-induced C57BL/6 mouse ulcerative colitis model assessed as reduction in fecal occult blood at 10 to 20 mg/kg, po administrated for 6 days measured on day 9; assay type: functional, organism-based; conditions: dose 10-20 mg/kg, time 6.0 day
[21] = Clearance in Sprague-Dawley rat at 5 mg/kg, iv by LC-MS/MS analysis; assay type: ADME, organism-based; conditions: in vivo
[22] = Half life in Sprague-Dawley rat at 5 mg/kg, iv by LC-MS/MS analysis; assay type: ADME, organism-based; conditions: in vivo
Mus musculus [23] = experiment: Anti-ulcerative colitis activity in DSS-induced C57BL/6 mouse ulcerative colitis model assessed as reduction in watery stool at 10 to 20 mg/kg, po administrated for 6 days measured on day 9; assay type: functional, organism-based; conditions: dose 10-20 mg/kg, time 6.0 day
Mus musculus [24] = experiment: Anti-inflammatory activity in DSS-induced C57BL/6 mouse ulcerative colitis model assessed as suppression of IL-6 content in colon tissue at 20 mg/kg, po administrated for 6 days measured on day 9; assay type: functional, organism-based; conditions: time 6.0 day
[25] = Half life in Sprague-Dawley rat at 20 mg/kg, po by LC-MS/MS analysis; assay type: ADME, organism-based; conditions: in vivo
[26] = MRT (0 to t) in Sprague-Dawley rat at 5 mg/kg, iv by LC-MS/MS analysis; assay type: ADME, organism-based; conditions: in vivo
[27] = target: Receptor-type tyrosine-protein kinase FLT3 (Homo sapiens) (UniProt P36888); experiment: Inhibition of human FLT3 at 0.1 uM relative to control
Chain of Receptor-type tyrosine-protein kinase FLT3 (Homo sapiens) (P36888 whole entry): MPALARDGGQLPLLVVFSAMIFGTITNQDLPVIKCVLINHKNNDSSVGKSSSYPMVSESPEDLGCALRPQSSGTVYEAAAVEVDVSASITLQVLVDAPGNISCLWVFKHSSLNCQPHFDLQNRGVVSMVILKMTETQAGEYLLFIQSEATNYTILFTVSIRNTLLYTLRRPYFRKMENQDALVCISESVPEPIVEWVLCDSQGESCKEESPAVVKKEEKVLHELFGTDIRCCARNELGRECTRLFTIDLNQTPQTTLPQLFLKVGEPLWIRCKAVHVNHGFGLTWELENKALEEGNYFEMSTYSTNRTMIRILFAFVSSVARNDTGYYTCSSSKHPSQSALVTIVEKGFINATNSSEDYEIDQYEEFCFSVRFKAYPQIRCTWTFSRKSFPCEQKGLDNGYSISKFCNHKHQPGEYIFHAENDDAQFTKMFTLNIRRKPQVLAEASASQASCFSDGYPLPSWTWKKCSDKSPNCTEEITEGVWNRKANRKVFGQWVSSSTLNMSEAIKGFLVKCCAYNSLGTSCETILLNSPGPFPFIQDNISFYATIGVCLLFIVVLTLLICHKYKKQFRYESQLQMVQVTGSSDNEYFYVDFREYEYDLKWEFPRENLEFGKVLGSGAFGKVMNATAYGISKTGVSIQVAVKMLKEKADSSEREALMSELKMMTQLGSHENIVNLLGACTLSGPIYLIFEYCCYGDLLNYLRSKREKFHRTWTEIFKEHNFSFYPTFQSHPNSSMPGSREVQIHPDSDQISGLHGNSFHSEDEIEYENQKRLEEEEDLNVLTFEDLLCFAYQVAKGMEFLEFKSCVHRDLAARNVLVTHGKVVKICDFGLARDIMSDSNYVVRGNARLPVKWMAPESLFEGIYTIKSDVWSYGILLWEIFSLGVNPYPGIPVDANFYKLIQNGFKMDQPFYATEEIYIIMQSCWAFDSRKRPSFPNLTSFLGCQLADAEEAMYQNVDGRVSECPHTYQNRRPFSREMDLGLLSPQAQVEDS

Chain of Serine/threonine-protein kinase 16 (Homo sapiens) (O75716 whole entry): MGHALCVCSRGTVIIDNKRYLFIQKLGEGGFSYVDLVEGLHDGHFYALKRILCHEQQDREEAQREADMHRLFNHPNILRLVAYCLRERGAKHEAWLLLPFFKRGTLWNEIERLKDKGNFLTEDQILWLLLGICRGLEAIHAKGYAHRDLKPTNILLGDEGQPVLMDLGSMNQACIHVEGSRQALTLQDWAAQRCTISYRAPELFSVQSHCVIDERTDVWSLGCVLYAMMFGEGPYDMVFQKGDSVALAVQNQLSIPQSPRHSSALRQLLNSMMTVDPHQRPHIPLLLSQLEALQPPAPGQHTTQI

- AUC(0-t) [1]: 29 ng·h/mL
- inhibition [2]: inactive
- bioavailability [5]: 12%
- Cmax [6]: 8 ng/mL
- half-life [7]: 2.03 h
- Cmax [8]: 48.5 ng/mL
- AUC(0-t) [13]: 13.9 ng·h/mL
- MRT last [14]: 2.76 h
- Tmax [15]: 1 h
- Vdss [17]: 0.985 L/kg
- clearance [21]: 1.58 mL/min/kg
- half-life [22]: 5.95 h
- half-life [25]: 3.64 h
- MRT(t) [26]: 4.98 h
- inhibition [27]: 32%
SMILES: N#CCCn1cc(-c2nc(Nc3ccc4c(ccn4S(=O)(=O)C(F)(F)F)c3)ncc2F)cn1
- Activity (Mus musculus [3]): Active
- Activity (Mus musculus [4]): Active
- Activity (Mus musculus [9]): Active
- Activity (Mus musculus [10]): Active
- Activity (Mus musculus [11]): Active
- Activity (Mus musculus [12]): Active
- Activity (Mus musculus [16]): Active
- Activity (Mus musculus [18]): Active
- Activity (Mus musculus [19]): Active
- Activity (Mus musculus [20]): Active
- Activity (Mus musculus [23]): Active
- Activity (Mus musculus [24]): Active

— ChEMBL document CHEMBL4825658, “Discovery of 3-(4-(2-((1H-Indol-5-yl)amino)-5-fluoropyrimidin-4-yl)-1H-pyrazol-1-yl)propanenitrile Derivatives as Selective TYK2 Inhibitors for the Treatment of Inflammatory Bowel Disease” (J Med Chem, 2021)
